Measurements: US6784205B2, “Compounds that modulate the activity of PTP-1B and TC-PTP” (Sunesis Pharmaceuticals, Inc., priority 2002, dated 2004)

Legend:
[1] = target: tyrosine phosphatase leukocyte common antigen related protein (LAR) (Homo sapiens, UniProt P10586); assay: Inhibition of LAR; format: biochemical
human PTP-1B = target: T1, human PTP-1B (Homo sapiens, UniProt P18031); assay: PTP-1B IC50 determination with pNPP substrate; format: biochemical
T1 construct: A shorter cDNA, PTP-1B 298, encoding amino acid residues 1-298 was generated; made in house; host or cells: E. coli BL21 codon plus (Stratagene), pRSETc
T1 sequence (P18031 1-298): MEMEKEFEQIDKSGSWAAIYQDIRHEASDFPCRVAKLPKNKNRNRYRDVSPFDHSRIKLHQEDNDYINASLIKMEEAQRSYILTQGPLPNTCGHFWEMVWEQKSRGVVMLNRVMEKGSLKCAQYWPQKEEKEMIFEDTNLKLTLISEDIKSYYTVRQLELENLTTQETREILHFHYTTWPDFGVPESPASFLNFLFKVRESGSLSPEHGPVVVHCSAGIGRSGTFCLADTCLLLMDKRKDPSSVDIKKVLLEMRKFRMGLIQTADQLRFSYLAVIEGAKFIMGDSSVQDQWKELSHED

TC-PTP = target: T2, TC-PTP (Homo sapiens, UniProt P17706); assay: Inhibition of TC-PTP; format: biochemical; details: read-out: IC50 against TC-PTP
T2 sequence (P17706 1-415): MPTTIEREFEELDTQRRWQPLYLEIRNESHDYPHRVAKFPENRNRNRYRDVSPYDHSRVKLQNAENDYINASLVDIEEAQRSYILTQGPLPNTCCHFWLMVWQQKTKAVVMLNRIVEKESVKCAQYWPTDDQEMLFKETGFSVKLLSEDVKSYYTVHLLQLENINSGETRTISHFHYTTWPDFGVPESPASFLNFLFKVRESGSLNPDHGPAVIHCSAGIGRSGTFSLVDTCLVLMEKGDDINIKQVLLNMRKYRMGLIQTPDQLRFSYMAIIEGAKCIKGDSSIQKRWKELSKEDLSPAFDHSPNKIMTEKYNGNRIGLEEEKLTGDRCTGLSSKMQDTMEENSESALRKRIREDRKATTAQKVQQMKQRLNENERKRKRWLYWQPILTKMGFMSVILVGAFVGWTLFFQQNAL

[2] = test system: insulin receptor phosphorylation in CHO-IR cells; assay: Insulin receptor phosphorylation in CHO-IR cells (ELISA); format: cell-based; details: compound added 1 hour prior to harvesting, FIG. 9
Protocol: This example describes an illustrative assay for quantifying the degree of insulin receptor phosphorylation in cells. Any suitable cells can be used. In this example, CHO-IR cells were grown in DMEM w/10% fetal bovine serum supplemented with penicillin and streptomycin. Cells were plated at a density of 40,000 cells per well in a 96 well plate. The following day, the medium was changed to DMEM without serum and the cells were serum starved for 16 hours. 1 hour prior to harvesting, varying concentrations of a test compound diluted in DMEM were added to the cells. Where indicated, human insulin was added to cells 10 minutes prior to harvesting. Cell were lysed in 30 mM HEPES, 150 mM NaCl, 1% triton X-100, and 0.02% sodium azide. Insulin receptor phosphorylation was quantitated in an ELISA assay as described previously (Jongsoon Lee).

Chain of tyrosine phosphatase leukocyte common antigen related protein (LAR) (P10586 30-1907): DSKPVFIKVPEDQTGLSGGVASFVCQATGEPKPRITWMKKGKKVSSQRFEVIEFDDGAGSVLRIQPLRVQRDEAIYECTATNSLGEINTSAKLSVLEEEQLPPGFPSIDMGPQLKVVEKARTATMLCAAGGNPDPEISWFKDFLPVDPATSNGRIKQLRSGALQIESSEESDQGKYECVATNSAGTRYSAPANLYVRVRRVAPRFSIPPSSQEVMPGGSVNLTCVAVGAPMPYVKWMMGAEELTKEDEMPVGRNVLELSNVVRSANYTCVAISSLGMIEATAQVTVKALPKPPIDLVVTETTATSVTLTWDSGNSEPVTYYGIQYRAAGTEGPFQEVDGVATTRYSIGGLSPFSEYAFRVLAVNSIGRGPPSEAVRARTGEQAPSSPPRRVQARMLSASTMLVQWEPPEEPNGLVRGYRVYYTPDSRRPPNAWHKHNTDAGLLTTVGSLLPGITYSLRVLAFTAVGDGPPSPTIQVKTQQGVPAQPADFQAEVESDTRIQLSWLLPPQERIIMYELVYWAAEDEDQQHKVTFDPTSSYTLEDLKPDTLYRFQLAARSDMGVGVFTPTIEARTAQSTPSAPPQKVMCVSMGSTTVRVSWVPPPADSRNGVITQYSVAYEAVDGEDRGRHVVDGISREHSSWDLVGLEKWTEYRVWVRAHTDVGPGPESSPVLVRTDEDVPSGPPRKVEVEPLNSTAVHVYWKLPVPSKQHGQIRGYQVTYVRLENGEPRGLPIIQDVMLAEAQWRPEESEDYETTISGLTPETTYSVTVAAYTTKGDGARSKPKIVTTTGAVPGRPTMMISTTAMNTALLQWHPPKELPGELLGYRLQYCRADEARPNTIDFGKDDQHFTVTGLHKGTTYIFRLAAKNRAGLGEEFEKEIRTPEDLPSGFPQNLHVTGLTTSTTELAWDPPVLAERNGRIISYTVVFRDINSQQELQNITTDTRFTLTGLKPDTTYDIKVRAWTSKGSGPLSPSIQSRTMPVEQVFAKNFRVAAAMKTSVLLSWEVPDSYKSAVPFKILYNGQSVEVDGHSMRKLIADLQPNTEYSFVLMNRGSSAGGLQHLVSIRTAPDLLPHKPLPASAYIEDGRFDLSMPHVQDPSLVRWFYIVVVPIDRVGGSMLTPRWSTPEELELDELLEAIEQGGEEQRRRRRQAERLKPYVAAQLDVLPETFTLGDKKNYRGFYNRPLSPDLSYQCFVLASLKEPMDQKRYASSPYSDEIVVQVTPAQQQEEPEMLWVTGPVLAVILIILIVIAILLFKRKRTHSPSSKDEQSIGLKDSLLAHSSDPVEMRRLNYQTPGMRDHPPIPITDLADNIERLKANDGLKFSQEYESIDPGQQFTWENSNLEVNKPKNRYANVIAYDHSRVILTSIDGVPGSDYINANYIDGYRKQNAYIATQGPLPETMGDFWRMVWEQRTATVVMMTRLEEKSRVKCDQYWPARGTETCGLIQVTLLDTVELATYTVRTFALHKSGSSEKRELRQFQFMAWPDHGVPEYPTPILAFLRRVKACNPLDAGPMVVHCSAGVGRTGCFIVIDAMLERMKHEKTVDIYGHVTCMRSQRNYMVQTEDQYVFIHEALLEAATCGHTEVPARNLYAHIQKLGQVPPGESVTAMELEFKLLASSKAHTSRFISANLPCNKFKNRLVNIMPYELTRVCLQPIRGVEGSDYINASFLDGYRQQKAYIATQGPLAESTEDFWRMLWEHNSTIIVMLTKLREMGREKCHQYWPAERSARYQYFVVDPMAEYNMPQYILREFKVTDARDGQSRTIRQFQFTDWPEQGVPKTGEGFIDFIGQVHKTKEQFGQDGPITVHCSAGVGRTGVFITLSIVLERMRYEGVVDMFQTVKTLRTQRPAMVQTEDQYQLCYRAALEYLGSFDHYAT

CCc1oc2cc(S(=O)(=O)Nc3ccc(S(N)(=O)=O)cc3)ccc2c1C(=O)c1cc(Br)c(O)c(Br)c1 [compound 5]
inhibition of LAR [1]: does not inhibit
dependence of reaction velocity on substrate concentration (human PTP-1B; pNPP, varying concentrations of inhibitor): sigmoidal dependence
effect on Vmax with increasing inhibitor concentration (human PTP-1B; reaction velocity versus pNPP concentration, FIG. 8): decrease in Vmax
IC50 (TC-PTP): ~130 µM
level of insulin receptor phosphorylation [2]: is a function of the concentration of compound 5
